According to patent publication US20250340661A1, “ANTI CD40 ANTIBODY, ANTIGEN BINDING FRAGMENT AND MEDICAL USE THEREOF” (Jiangsu Hengrui Pharmaceuticals Co., Ltd., priority 2021, published 2025):

Assays:
[1] = tested on: human CD40 transgenic mice; test: Mouse skin graft rejection model; type: in vivo
Text: Male Balb/c mice, 6 weeks old, were purchased from the Laboratory Animal Management Department, Shanghai Institute of Planned Parenthood Research. Housing environment: SPF; certification number: 20180006023393.
On day −2 of the experiment, the mice were intraperitoneally injected with tacrolimus FK506 or CD40 antagonistic antibodies. On day 0 of the experiment, donor Balb/c mice and C57BL6/J mice were anesthetized with 4% chloral hydrate. The tails of the donor mice were removed, and full circles of skin, 1 cm in length, were isolated from the tails. The hair on the acceptor mice's back was removed, and an incision was made along the skin layer. An equal area of skin was removed while preserving the back fat and connective tissue. The donor skin was placed on the acceptor mice's incision site, and the incision was closed with glue. The mice were then placed back in cages to recover.
The mice were dosed according to the administration regimens in Table 17. After 7 days of recovery, the mouse skin survival was observed daily and rejection scores were recorded.

CD40 [2] = target: T1, CD40 (Homo sapiens, UniProt P25942); test: HEK-Blue CD40L reporter gene cell activity of human-rabbit chimeric anti-CD40 antibodies; type: cell-based; parameters: host or cells: HEK-Blue CD40L cells; conditions: HEK-Blue CD40L cells, 25 ng/mL CD40L + anti-His antibody
Procedure: HEK-Blue CD40L cells were purchased from Invivogen (Cat. #hkb-cd40). The cells were stably transfected with the human CD40 gene and the NF-kB-mediated SEAP genome. The activation level of the CD40 signaling pathway can be characterized by detecting the secreted SEAP in the supernatant using QUANTI-Blue, the substrate of SEAP. In this experiment, the in vitro antagonist activity of anti-CD40 antibodies was assessed according to IC50 by detecting the activation of HEK-Blue CD40L cells by CD40L. HEK-Blue CD40L cells were cultured in a DMEM medium containing 10% FBS, 100 μg/mL Zeocin and 30 μg/mL Blasticidin and passaged 2-3 times in a week at a ratio of 1:5 or 1:10. During passaging, the medium was pipetted off, and the cell layer was rinsed with 5 mL of 0.25% pancreatin. Then the pancreatin was pipetted off, the cells were digested in an incubator for 3-5 min, and then a fresh medium was added to resuspend cells. 100 μL of cell suspension was added to a 96-well cell culture plate at a density of […]. The medium was DMEM containing 10% FBS, 100 μg/mL Zeocin and 30 μg/mL Blasticidin. Only 100 μL of sterile water was added to the periphery of the 96-well plate. […] The absorbance at 630 nm was measured with a microplate reader (Thermo MultiSkanFc), and IC50 values were calculated and used to assess the in vitro cell activity of the anti-CD40 antibodies.

CD40 [3] = target: T1, CD40; test: DC cell activation assay system (monocyte-derived DCs, CD40L stimulation); type: cell-based; parameters: endogenous in cells; host or cells: human PBMCs (CD19+ B cells read out)
Text: CD40 is highly expressed on dendritic cells (DCs), and CD40L, upon binding to CD40, can induce DC activation, up-regulate the expression of multiple activation markers on the DC Cell surface, and promote the secretion of multiple inflammatory factors from DCs, further amplifying immune responses. CD40 antagonistic antibodies block the binding of CD40L to CD40, thereby eliminating the immune activation process of DC cells.
Monocytes were sorted and enriched from fresh primary human peripheral blood PBMCs using the EsaySep™ human CD14 sorting kit (Stemcell, 19359), and differentiated for 6 days with RPMI-1640 medium (10% FBS, 1% penicillin-streptomycin), 50 ng/mL IL-4 (PeproTech, 200-04) and 50 ng/mL GM-CSF (PeproTech, 300-03). On day 7, the differentiated DC cells were plated at 1E5/well into a 96-well cell culture plate. Serially diluted test antibodies were added to the wells, and the cells were co-incubated at 37° C. in 5% CO2 for 0.5 h. CD40L-his and an anti-His antibody were then added to each well at final concentrations. After 48 h of culture, the level of DC cell activation was measured by flow cytometry: after centrifugation, the supernatant was removed, and the cells were washed twice with FACS buffer (PBS+2% FBS) and stained at room temperature for 15 min with 100 μL of Fixable viability dye EF780 (Invitrogen, 65086514) diluted at 1:1000. The cells were washed twice and then blocked at room temperature for 10 min with 100 μL of human Fc blocker (BD, 564220) diluted at 1:200. After centrifugation, the cells were incubated at 4° C. for 0.5 h with flow cytometry antibodies (Alexa Fluor®700 anti-human CD11c (Biolegend, 337220), Brilliant Violet 421™ anti-human CD80 (Biolegend, 305221), and APC anti-human CD86 (Biolegend, 305412)) diluted at 1:200. After centrifugation, the supernatant was removed, the cells were washed twice with FACS buffer and then resuspended in 200 μL of PBS, and the fluorescence intensity on the cell surface was measured by flow cytometry (BD FACS Celesta).
In addition, the level of cytokine secretion in the supernatant was measured after 24 h (TNFα, Cisbio, 62[…]) and 48 h (IL-12/23 p40, Novus, VAL121) of culture. According to the results shown in Table 14 and FIGS. 3A to 3D, 9E6-L4H2 and 2F12-L4H2 have similar DC cell inhibition activity to the control antibody CFZ533.
With reference to the method in Example 11, the inhibitory activity of the anti-CD40 antibodies 2F12-L4H2-AAYTE and 9E6-L4H2-AAYTE, which carry the AAYTE mutation in the Fc, in the DC cell activation assay system was measured.

T1 sequence (P25942 21-277): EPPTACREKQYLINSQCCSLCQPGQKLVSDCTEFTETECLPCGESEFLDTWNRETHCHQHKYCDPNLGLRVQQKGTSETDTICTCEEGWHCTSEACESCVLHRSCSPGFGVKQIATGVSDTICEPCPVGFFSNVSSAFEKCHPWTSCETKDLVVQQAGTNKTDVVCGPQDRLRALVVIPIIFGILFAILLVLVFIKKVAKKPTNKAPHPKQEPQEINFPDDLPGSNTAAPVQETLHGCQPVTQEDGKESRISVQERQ

CFZ533: anti-CD40 antagonistic antibody (iscalimab), positive control; variable regions from U.S. Pat. No. 8,277,810B [reference compound]
Skin graft score ([1]; 8 days, 3 mpk, scale 3 (no rejection) to 0): 2.7 | Skin graft score ([1]; 8 days, 10 mpk, scale 3 to 0): 2.9 | Skin graft score ([1]; 10 days, 3 mpk, scale 3 to 0): 2.1 | Skin graft score ([1]; 10 days, 10 mpk, scale 3 to 0): 2.1 | Skin graft score ([1]; 15 days, 3 mpk, scale 3 to 0): 0 | Skin graft score ([1]; 15 days, 10 mpk, scale 3 to 0): 0 | Skin graft score ([1]; 20 days, 3 mpk, scale 3 to 0): 0 | Skin graft score ([1]; 20 days, 10 mpk, scale 3 to 0): 0 | Skin graft survival rate (%) ([1]; Day 15, 3 mpk ip): 0% | Skin graft survival rate (%) ([1]; Day 15, 10 mpk ip): 0% | IC50 (CD40 [2]): 0.272 nM | IC50 (CD40 [3]; 48 h culture, read-out: IC50 in DC cell activation assay system, CD80 MFI): 1.19 nM | IC50 (CD40 [3]; 48 h culture, read-out: IC50 in DC cell activation assay system, CD86 MFI): 1.93 nM | IC50 (CD40 [3]; supernatant, 24 h, read-out: IC50 in DC cell activation assay system, TNFα): 0.35 nM | IC50 (CD40 [3]; supernatant, 48 h, read-out: IC50 in DC cell activation assay system, IL-12/23 p40): 0.68 nM
